From patent US20080146499A1, “Identification of the Precise Amino Acid Sequence of the Epitope Recognized by the Potent Neutralizing Human Anti-Hiv-1 Monoclonal Antibody Igg1b12” (priority 2005, published 2008)
No end group written: not given here. *: point of attachment. Biotin = O=C1N[C@H]2[C@H](CS[C@H]2CCCCC(=O)*)N1

Experiments:
N terminal peptide = details: i.p. immunizations days 1, 15, 30, 45, 60; sera day 67; compared to control mice; FIG. 13 B
Description: For immunogenicity studies, 4 groups of 4 BALB/c mice (16 total) were immunized intraperitoneally (i.p.) 5 times over 2 months. The first group of mice received PBS plus Freund's adjuvant in each immunization, and the second group received 10-50 kg gp120. The third and fourth groups received 10 μg biotinylated peptide (group 3 received N-term, group 4, scrambled) linked to avidin.
ELISAs to detect Ab responses in mice were carried out by coating 96 well plates with 2.5 μg/ml gp120 or 5 μg/ml biotinylated peptide overnight at 4° C. Blood was obtained by venous tail puncture, serum was obtained by collecting the supernatant of blood that had been incubated at 4° C. for one hour and centrifuged in an Eppendorf microcentrifuge (Centrifuge 5417C, Brinkmann Instruments, Ltd. Mississauga, ON) twice for 30 minutes at maximum speed. Serum was diluted at 1/50 down in doubling dilutions and incubated on plates for 2 hours at 37° C., washed, and HRP-goat anti-mouse secondary antibody (Southern Biotechnology Associates, Inc., Birmingham, Ala.) was added. ABTS substrate (Roche Diagnostics Canada, Laval, PQ) was used for detection. Plates were read at 405 nm on the Spectramax Plus.

[1] = molecular target: biotinylated N-term peptide (biotin-…) (HIV-1); assay: antigen capture ELISA, plates coated with IgG1 b12, biotinylated peptide detected with streptavidin alkaline phosphatase; reference: scrambled peptide
IgG1b12 antibody = assay: Synthetic gp120 peptide binding to bead-linked IgG1b12, measured by mass spectrometry; design: species or system human; details: synthetic peptides as starting material; FIG. 5
Description: The antibody was linked to cyanogen-bromide activated sepharose beads (Sigma-Aldrich, Oakville, Ontario). Epitope excision was performed to include potential conformational epitopes. The antibody-bead mixture was incubated with either MN or IIIB HIV-1 gp120 (ImmunoDiagnostics, Inc. Woburn, Mass.) or synthetic HIV-1 gp120 peptides (United Biochemical Research, Inc, Seattle, Wash., USA) for 2 hours under physiological conditions. After several washes, trypsin (Calbiochem-Novabiochem Corporation, San Diego, Calif., USA), or Glu-C (Roche Diagnostics Canada. Laval, Quebec) enzyme digests were performed. Unbound, digested material was washed away. Antibody-bound fragments protected from digestion were analyzed by mass spectrometry. Bead+antibody+peptide complex were spotted on a gold plate along with DHB matrix (Sigma-Aldrich, Oakville, Ontario) (3,4). The sample was analyzed on the prototypic QqTOF mass spectrometer by matrix-assisted laser desorption/ionization.
Epitope mapping experiments were performed using synthetic peptides. One peptide, the “N-term” (amino terminus) peptide was tested for it's binding to IgG1b12. The N-term sequence is as follows: [sequence]. A second peptide covered the CD4 binding site, including the isoleucine (I) residue.

Biotin-LWVTVYYGVPVWKEATTTLFCASDAK [Nterm peptide]
immunogenicity in the mouse model (gp120; BALB/c mice, biotinylated peptide linked to avidin, i.p.): immunogenic
serum antibodies binding whole gp120 (gp120; i.p. immunizations days 1, 15, 30, 45, 60, sera day 67, compared to control mice, FIG. 13 A): contains antibodies capable of binding both whole gp120 and N-terminal peptide
binding to IgG1 b12 relative to the scrambled peptide (IgG1 b12; antigen capture ELISA): 4 times
peptide binding to IgG1 b12 (IgG1 b12; plates coated with 2.5 μg/ml IgG1 b12, serially diluted biotinylated peptide, FIG. 11): bound IgG1 b12, and this binding was dose dependant
serum antibodies binding N-terminal peptide (N terminal peptide): contains antibodies capable of binding both whole gp120 and N-terminal peptide

IgG1b12 human monoclonal antibody
fold binding against the scrambled peptide [1]: 4 times

KLWVTVYYGVPVWKEATTTLFCASDAKAYDTE [amino terminus]
recognition of synthetic peptide by IgG1b12 (IgG1b12 antibody): specifically recognizes
